Legend:
Assay type in all cases: in vivo
[1] = system: waterhemp_RES2 (ALS & HPPD resistant common waterhemp, Amaranthus rudis); assay: Test E greenhouse herbicide test, postemergence
Method in brief: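 Postemergence spray on potted plants, 1–4 leaves, 2–18 cm; greenhouse 14–21 d; visual rating vs controls, 0 (no effect) to 100 (complete control).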

[2] = system: wheat, winter (winter wheat, Triticum aestivum); assay: Test D controlled growth environment herbicide test, pre- and postemergence
Excerpt: (§1) Seeds of plant species selected from bluegrass (annual bluegrass, Poa annua), blackgrass (Alopecurus myosuroides), Canada thistle (Cirsium arvense), canarygrass (Phalaris minor), chickweed (common chickweed, Stellaria media), geranium, cutleaf (cutleaf geranium, Geranium dissectum), galium (catchweed bedstraw, Galium aparine), bromegrass, downy (downy bromegrass, Bromus tectorum), field poppy (Papaver rhoeas), field violet (Viola arvensis), foxtail, green (green foxtail, Setaria viridis), deadnettle (henbit deadnettle, Lamium amplexicaule), ryegrass, Italian (Italian ryegrass, Lolium multiflorum), kochia (Kochia scoparia), lambsquarters (Chenopodium album), oilseed rape (Brassica napus), pigweed (Amaranthus retroflexus), chamomile (scentless chamomile, Matricaria inodora), Russian thistle (Salsola kali), speedwell (bird's-eye speedwell, Veronica persica), barley, spring (spring barley, Hordeum vulgare), wheat, spring (spring wheat, Triticum aestivum), buckwheat, wild (wild buckwheat, Polygonum convolvulus), mustard, wild (wild mustard, Sinapis arvensis), oat, wild (wild oat, Avena fatua), radish, wild (wild radish, Raphanus raphanistrum), windgrass (Apera spica-venti), barley, winter (winter barley, Hordeum vulgare), and wheat, winter (winter wheat, Triticum aestivum) were planted into a silt loam soil and treated preemergence with test chemicals formulated in a non-phytotoxic solvent mixture which included a surfactant.
(§2) At the same time, these species were planted in pots containing Redi-Earth® planting medium (Scotts Company, 14111 Scottslawn Road, Marysville, Ohio 43041) comprising spaghnum peat moss, vermiculite, wetting agent and starter nutrients and treated with postemergence applications of the test chemicals formulated in the same manner. Plants ranged in height from 2 to 18 cm (1- to 4-leaf stage). Treated plants and controls were maintained in a controlled growth environment for 14 to 21 d after which time all species were compared to controls and visually evaluated. Plant response ratings, summarized in Table D, are based on a scale of 0 to 100 where 0 is no effect and 100 is complete control. A dash (-) response means no test result.

[3] = system: pigweed (Amaranthus retroflexus); assay: as above
Excerpt: as §1, §2

[4] = system: windgrass (Apera spica-venti); assay: as above
Excerpt: as §1, §2

[5] = system: radish, wild (wild radish, Raphanus raphanistrum); assay: as above
Excerpt: as §1, §2

[6] = system: field violet (Viola arvensis); assay: as above
Excerpt: as §1, §2

[7] = system: speedwell (bird's-eye speedwell, Veronica persica); assay: as above
Excerpt: as §1, §2

[8] = system: barley, winter (winter barley, Hordeum vulgare); assay: as above
Excerpt: as §1, §2

[9] = system: Russian thistle (Salsola kali); assay: as above
Excerpt: as §1, §2

[10] = system: bluegrass (annual bluegrass, Poa annua); assay: as above
Excerpt: as §1, §2

[11] = system: oat, wild (wild oat, Avena fatua); assay: as above
Excerpt: as §1, §2

[12] = Postemergence, 31 g ai/ha, scale 0 to 100 (0 no effect, 100 complete control)
[13] = Postemergence, 125 g ai/ha, visual rating on scale 0 (no effect) to 100 (complete control), 14 to 21 d
[14] = Postemergence, 250 g ai/ha, scale 0 to 100 (0 no effect, 100 complete control)
[15] = Preemergence, 125 g ai/ha, scale 0 to 100 (0 no effect, 100 complete control)
[16] = Preemergence, 250 g ai/ha, scale 0 to 100, 0 no effect, 100 complete control
[17] = postemergence, 62 g ai/ha, scale 0 to 100, 0 no effect, 100 complete control
[18] = Preemergence, 62 g ai/ha, scale 0 to 100 (0 no effect, 100 complete control)

Cc1nn(C)c(=O)c(-c2cccc3ccc(Br)cc23)c1O [Compound 126]
Plant response rating, Waterhemp_RES2 ([1]; 31 g ai/ha, visual, scale 0 no effect to 100 complete control): 55
Plant response rating, Waterhemp_RES2 ([1]; 125 g ai/ha, scale 0 to 100 (0 no effect, 100 complete control)): 70
Plant response rating, Waterhemp_RES2 ([1]; 250 g ai/ha, scale 0 to 100 (0 no effect, 100 complete control)): 85
Wheat, Winter plant response rating [2, 12]: 0
Plant response rating, Wheat, Winter [2, 13]: 0
Plant response rating, Wheat, Winter [2, 14]: 0
Plant response rating (scale of 0 to 100), Wheat, Winter ([2]; Preemergence, 31 g ai/ha): 0
Plant response rating (scale of 0 to 100), Wheat, Winter ([2]; Preemergence, 62 g ai/ha): 0
Plant response rating, Wheat, Winter [2, 15]: 0
Plant response rating, Wheat, Winter [2, 16]: 0
Plant response rating, Wheat, Winter [2, 17]: 0
Pigweed plant response rating [3, 12]: 98
Plant response rating, Pigweed [3, 13]: 98
Plant response rating, Pigweed [3, 14]: 98
Plant response rating (scale of 0 to 100), Pigweed ([3]; Preemergence, 31 g ai/ha): 98
Plant response rating (scale of 0 to 100), Pigweed ([3]; Preemergence, 62 g ai/ha): 100
Plant response rating, Pigweed [3, 15]: 100
Plant response rating, Pigweed [3, 16]: 100
Plant response rating, Pigweed [3, 17]: 100
Windgrass plant response rating [4, 12]: 0
Plant response rating, Windgrass [4, 13]: 30
Plant response rating, Windgrass [4, 14]: 55
Plant response rating (scale of 0 to 100), Windgrass ([4]; Preemergence, 31 g ai/ha): 25
Plant response rating (scale of 0 to 100), Windgrass ([4]; Preemergence, 62 g ai/ha): 35
Plant response rating, Windgrass [4, 15]: 75
Plant response rating, Windgrass [4, 16]: 85
Plant response rating, Windgrass [4, 17]: 20
Radish, Wild plant response rating [5, 12]: 40
Plant response rating, Radish, Wild [5, 13]: 75
Plant response rating, Radish, Wild [5, 14]: 95
Plant response rating (scale of 0 to 100), Radish, Wild ([5]; Preemergence, 31 g ai/ha): 5
Plant response rating (scale of 0 to 100), Radish, Wild ([5]; Preemergence, 62 g ai/ha): 15
Plant response rating, Radish, Wild [5, 15]: 75
Plant response rating, Radish, Wild [5, 16]: 90
Plant response rating, Radish, Wild [5, 17]: 70
Field Violet plant response rating [6, 12]: 85
Plant response rating, Field Violet [6, 13]: 90
Plant response rating, Field Violet [6, 14]: 100
Plant response rating (scale of 0 to 100), Field Violet ([6]; Preemergence, 31 g ai/ha): 85
Plant response rating (scale of 0 to 100), Field Violet ([6]; Preemergence, 62 g ai/ha): 85
Plant response rating, Field Violet [6, 15]: 100
Plant response rating, Field Violet [6, 16]: 100
Plant response rating, Field Violet [6, 17]: 85
Speedwell plant response rating [7, 12]: 60
Plant response rating, Speedwell [7, 13]: 100
Plant response rating, Speedwell [7, 14]: 100
Plant response rating (scale of 0 to 100), Speedwell ([7]; Preemergence, 31 g ai/ha): 70
Plant response rating (scale of 0 to 100), Speedwell ([7]; Preemergence, 62 g ai/ha): 100
Plant response rating, Speedwell [7, 15]: 100
Plant response rating, Speedwell [7, 16]: 100
Plant response rating, Speedwell [7, 17]: 65
Barley, Winter plant response rating [8, 12]: 0
Plant response rating, Barley, Winter [8, 13]: 0
Plant response rating, Barley, Winter [8, 14]: 0
Plant response rating (scale of 0 to 100), Barley, Winter ([8]; Preemergence, 31 g ai/ha): 0
Plant response rating, Barley, Winter [8, 18]: 0
Plant response rating, Barley, Winter [8, 15]: 0
Plant response rating, Barley, Winter [8, 16]: 5
Plant response rating, Barley, Winter [8, 17]: 5
Russian Thistle plant response rating [9, 12]: 30
Plant response rating, Russian Thistle [9, 13]: 80
Plant response rating, Russian Thistle [9, 14]: 85
Plant response rating (scale of 0 to 100), Russian Thistle ([9]; Preemergence, 31 g ai/ha): 0
Plant response rating (scale of 0 to 100), Russian Thistle ([9]; Preemergence, 62 g ai/ha): 0
Plant response rating, Russian Thistle [9, 15]: 5
Plant response rating, Russian Thistle [9, 16]: 15
Plant response rating, Russian Thistle [9, 17]: 40
Bluegrass plant response rating [10, 12]: 0
Plant response rating, Bluegrass [10, 13]: 15
Plant response rating, Bluegrass [10, 14]: 15
Plant response rating (scale of 0 to 100), Bluegrass ([10]; Preemergence, 31 g ai/ha): 5
Plant response rating, Bluegrass [10, 18]: 5
Plant response rating, Bluegrass [10, 15]: 30
Plant response rating, Bluegrass [10, 16]: 40
Plant response rating, Bluegrass [10, 17]: 10
Oat, Wild plant response rating [11, 12]: 60
Plant response rating, Oat, Wild [11, 13]: 80
Plant response rating, Oat, Wild [11, 14]: 90
Plant response rating (scale of 0 to 100), Oat, Wild ([11]; Preemergence, 31 g ai/ha): 65
Plant response rating (scale of 0 to 100), Oat, Wild ([11]; Preemergence, 62 g ai/ha): 70
Plant response rating, Oat, Wild [11, 15]: 80
Plant response rating, Oat, Wild [11, 16]: 90
Plant response rating, Oat, Wild [11, 17]: 70

From patent publication US10597388B2, “Pyridazinone herbicides” (FMC CORPORATION, priority 2014, dated 2020)
